Source: paper PMC8041284, “Tunable Methacrylamides for Covalent Ligand Directed Release Chemistry” (Journal of the American Chemical Society, 2021)

Target: T1, BTK (Homo sapiens, UniProt Q06187)
Assay: not given
Details: 0.75 uM BTK, […] probe 3l, 15 min preincubation, 10 µM, inhibitor, BTK inhibition (%)

T1 sequence (Q06187 402-655 limits assumed): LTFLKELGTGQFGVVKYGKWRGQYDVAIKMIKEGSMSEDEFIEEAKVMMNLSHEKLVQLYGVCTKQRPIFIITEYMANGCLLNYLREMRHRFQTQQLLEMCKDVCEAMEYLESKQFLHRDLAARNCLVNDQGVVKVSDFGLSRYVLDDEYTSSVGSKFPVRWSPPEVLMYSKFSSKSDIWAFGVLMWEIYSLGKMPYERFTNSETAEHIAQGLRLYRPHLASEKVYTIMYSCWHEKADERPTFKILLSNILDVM

SMILES | BTK inhibition (%)
COc1cc2c3cc1Oc1c(OC)c(OC)cc4c1[C@@H](Cc1ccc(O)c(c1)Oc1ccc(cc1)C[C@@H]3N(C)CC2)N(C)CC4 [PCM-0214866] | 17.8
Cc1ccc(-n2[nH]c(C)c(N=Nc3cccc(-c4cccc(C(=O)O)c4)c3O)c2=O)cc1C [PCM-0214811] | 77
CNCCc1ccccn1 [PCM-0086123] | 5.4
CN(c1ncccc1CNc1nc(Nc2ccc3c(c2)CC(=O)N3)ncc1C(F)(F)F)S(C)(=O)=O [PCM-0095340] | 78.6
Cc1cc(C2CCCCC2)n(O)c(=O)c1 [PCM-0086120] | 28
CC[C@]12C=CCN3CC[C@]4(C(=C(C(=O)OC)C1)Nc1ccccc14)[C@@H]32 [PCM-0215925] | 13.9
Cc1c(O)c(=O)ccn1C [PCM-0090746] | -11.9
CC[C@H]1OC(=O)[C@H](C)[C@@H](O[C@H]2C[C@@](C)(OC)[C@@H](O)[C@H](C)O2)[C@H](C)[C@@H](O[C@@H]2O[C@H](C)C[C@H](N(C)C)[C@H]2O)[C@](C)(O)C[C@@H](C)CN(C)[C@H](C)[C@@H](O)[C@]1(C)O [PCM-0214754] | 1.6
Nc1ccc(S(=O)(=O)Nc2ncccn2)cc1 [PCM-0085802] | -14
CCCC(CCC)C(=O)O [PCM-0215159] | 6.9
CN1C2=C3N=c4ccccc4=C3CCN2C(=O)c2ccccc21 [PCM-0215051] | 4.7
C[C@H](O)[C@H](O)[C@@H](O)[C@@H](O)C=O [PCM-0214991] | -11.7
CO/N=C(\C(=O)N[C@@H]1C(=O)N2C(C(=O)O)=C(CSC(=O)c3ccco3)CS[C@H]12)c1csc(N)n1 [PCM-0216235] | 0.8
CN1[C@@H]2CC[C@H]1CC(OC(=O)c1c[nH]c3ccccc13)C2 (stereo partly drawn) [PCM-0086109] | -11.7
O=C(Nc1ccc2c(O)cc(S(=O)(=O)O)cc2c1)Nc1ccc2c(O)cc(S(=O)(=O)O)cc2c1 [PCM-0215497] | 21.6
C[C@@H]1O[C@@H]1P(=O)(O)O [PCM-0215255] | -21
C=C1[C@H](CO)[C@@H](O)C[C@@H]1n1cnc2c(=O)[nH]c(N)nc21 [PCM-0216093] | 11
CC(C(=O)O)c1cccc(Oc2ccccc2)c1 (stereo not drawn) [PCM-0214813] | 4.8
O=C1O[C@H]([C@@H](O)CO)C(O)=C1O [PCM-0215215] | -6.8
Nc1nc2[nH]cc(CCc3ccc(C(=O)N[C@@H](CCC(=O)O)C(=O)O)cc3)c2c(=O)[nH]1 [PCM-0215446] | -10.2
Cc1cc(C)nc(NS(=O)(=O)c2ccc(N)cc2)n1 [PCM-0086513] | -23.3
CN1[C@@H]2CC[C@H]1CC(OC(=O)c1c[nH]c3ccccc13)C2 (stereo partly drawn) [PCM-0216191] | -12.4
C=C[C@]1(C)C[C@@H](OC(=O)CSCCN(CC)CC)[C@]2(C)[C@H](C)CC[C@]3(CCC(=O)[C@H]32)[C@@H](C)[C@@H]1O [PCM-0215106] | -8.5
CCC(=O)NS(=O)(=O)c1ccc(-c2c(-c3ccccc3)noc2C)cc1 [PCM-0216557] | 2.3

Same assay, conditions: 0.75 uM BTK, […] probe 3l, 15 min preincubation; 10 µM; inhibitor

SMILES | BTK inhibition (%)
CN1[C@@H]2CC[C@H]1CC(OC(=O)[C@H](CO)c1ccccc1)C2 (stereo partly drawn) [PCM-0095561] | -14.8
C[N+](C)(C)CCCCCCCCCC[N+](C)(C)C [PCM-0065265] | 11.7
COc1ccc(C(CN(C)C)C2(O)CCCCC2)cc1 (stereo not drawn) [PCM-0065195] | 6.2
COC(=O)Nc1nc2ccccc2[nH]1 [PCM-0214885] | -9.3
O=C(O[C@H]1C[N+]2(CCCOc3ccccc3)CCC1CC2)C(O)(c1cccs1)c1cccs1 [PCM-0214751] | -24.1
O=C(O)C1C2CCC(O2)C1C(=O)O (stereo not drawn) [PCM-0215947] | -7.7
CC(C)[N+]1(C)[C@@H]2CC[C@H]1CC(OC(=O)C(CO)c1ccccc1)C2 (stereo partly drawn) [PCM-0214646] | -24.9
CO[C@H]1/C=C/O[C@@]2(C)Oc3c(C)c(O)c4c(O)c(c(/C=N/N5CCN(C)CC5)c(O)c4c3C2=O)NC(=O)/C(C)=C\C=C\[C@H](C)[C@H](O)[C@@H](C)[C@@H](O)[C@@H](C)[C@H](OC(C)=O)[C@@H]1C [PCM-0086069] | 32.7
C[C@@H]1O[C@@H](O[C@H]2C[C@@H](O)[C@]3(CO)[C@H]4[C@H](O)C[C@]5(C)[C@@H](C6=CC(=O)OC6)CC[C@]5(O)[C@@H]4CC[C@]3(O)C2)[C@H](O)[C@H](O)[C@H]1O [PCM-0214805] | -5.4
C1CCN2C[C@H]3C[C@H](CN4CCCC[C@@H]34)[C@H]2C1 [PCM-0216422] | 6.9
CC(=O)O[C@H]1C[C@@H]2CC[C@@H]3[C@H](CC[C@@]4(C)[C@H]3C[C@H]([N+]3(C)CCCCC3)[C@@H]4OC(C)=O)[C@@]2(C)C[C@@H]1N1CCCCC1 [PCM-0214623] | -6.2
C[N+]1(C)[C@@H]2CC(OC(=O)[C@H](CO)c3ccccc3)C[C@H]1[C@@H]1O[C@@H]12 (stereo partly drawn) [PCM-0095246] | 10.9
CN(C)C(=O)Oc1cccc([N+](C)(C)C)c1 [PCM-0064762] | -7.7
c1c2c(cc3c1OCO3)-c1cc3ccc4c(c3c[n+]1CC2)OCO4 [PCM-0216022] | -46.8
O=C(OC1C[C@H]2CC[C@@H](C1)[N+]21CCCC1)C(O)(c1ccccc1)c1ccccc1 (stereo partly drawn) [PCM-0095326] | 7
CC(C)c1ccc(C=O)cc1 [PCM-0216001] | -18.5

SMILES | BTK inhibition (%)
CC(C)=CCC[C@]1(C)C=Cc2c(O)c3c(c(CC=C(C)C)c2O1)O[C@]12C(=C[C@@H]4C[C@H]1C(C)(C)O[C@@]2(C/C=C(/C)C(=O)O)C4=O)C3=O [PCM-0214728] | -1.6
NC(=O)c1ncn([C@@H]2O[C@H](CO)[C@@H](O)[C@H]2O)n1 [PCM-0065438] | -11.7
COc1ccc2c(c1)[nH]c1c(C)nccc12 [PCM-0088555] | -17.1
CC1=C(O)C(=O)C=C2C1=CC=C1[C@@]2(C)CC[C@@]2(C)[C@@H]3C[C@](C)(C(=O)O)CC[C@]3(C)CC[C@]12C [PCM-0214611] | 67.7
CCN(Cc1ccc(Cl)nc1)/C(=C/[N+](=O)[O-])NC [PCM-0214807] | 7
Cn1c(CCCC(=O)O)nc2cc(N(CCCl)CCCl)ccc21 [PCM-0065281] | -3.9
Cc1cc(C(C#N)c2ccc(Cl)cc2)c(Cl)cc1NC(=O)c1cc(I)cc(I)c1O (stereo not drawn) [PCM-0086145] | 20.2
O=P1(N(CCCl)CCCl)NCCCO1 (stereo not drawn) [PCM-0064707] | -19.3
C[C@H]1CC[C@]2(NC1)O[C@H]1C[C@H]3[C@@H]4CC[C@H]5C[C@@H](O)CC[C@]5(C)[C@H]4CC[C@]3(C)[C@H]1[C@@H]2C [PCM-0216325] | 13.9
ClC(Cl)=C(c1ccc(Cl)cc1)c1ccc(Cl)cc1 [PCM-0216164] | 10.8
COC(=O)C1=C(C)NC(C)=C(C(=O)OCCN2CCN(C(c3ccccc3)c3ccccc3)CC2)C1c1cccc([N+](=O)[O-])c1 (stereo not drawn) [PCM-0090281] | 34.2
CC(=O)OC1CN2CCC1CC2 (stereo not drawn) [PCM-0215275] | 4.7
C=C(C)[C@H]1Cc2c(ccc3c2O[C@@H]2COc4cc(OC)c(OC)cc4[C@@H]2C3=O)O1 [PCM-0214933] | 6.2
CC(=O)N1C[C@H](O)C[C@H]1C(=O)O [PCM-0215090] | 8.6
Cc1cc2c(C(C)C)c(O)c(O)c(C=O)c2c(O)c1-c1c(C)cc2c(C(C)C)c(O)c(O)c(C=O)c2c1O [PCM-0064881] | 75.5

Same assay, conditions: 10 µM; inhibitor

SMILES | BTK inhibition (%)
Nc1ncnc2c1ccn2[C@@H]1O[C@H](CO)[C@@H](O)[C@H]1O [PCM-0215658] | 10.8
COc1ccc(/C=C/c2cc(OC)cc(OC)c2)cc1 [PCM-0214992] | 34.2
O=c1ccc2c(O)c3ccoc3cc2o1 [PCM-0216332] | -11.6
CN[C@H]1[C@H](O)[C@H](O[C@@H]2[C@@H](O)[C@H](O[C@H]3O[C@H](C(C)O)[C@@H](O)[C@H](O)[C@H]3N)[C@@H](N)C[C@H]2N)OC[C@@]1(C)O (stereo partly drawn) [PCM-0215175] | 6
Cc1c([C@H](C)[C@@H]2NC[C@@H](C)C[C@H]2O)ccc2c1C[C@H]1[C@H]2CC=C2C[C@@H](O)CC[C@@]21C [PCM-0214977] | -2.3
CC(=O)OC(C)(C)/C=C/C(=O)[C@](C)(O)[C@H]1[C@H](O)C[C@@]2(C)[C@@H]3CC=C4[C@@H](C[C@H](O)C(=O)C4(C)C)[C@]3(C)C(=O)C[C@]12C [PCM-0214542] | -10
CN1CC=C(c2ccccc2)CC1 [PCM-0214851] | 3.1
C[C@H]1CCC2N(C1)C[C@H]1C3CC4[C@@H](CC(=O)C5C[C@@H](O)CC[C@@]54C)C3CCC1[C@]2(C)O (stereo partly drawn) [PCM-0216425] | -17.8

Target: T1, BTK
Assay: biochemical
Details: read-out: BTK inhibition (%), 0.75 uM BTK, […] probe 3l, 15 min preincubation

SMILES | inhibition at 10 µM [%]
COc1cc2c3cc1Oc1c(OC)c(OC)cc4c1[C@@H](Cc1ccc(O)c(c1)Oc1ccc(cc1)C[C@@H]3N(C)CC2)N(C)CC4 [PCM-0214866] | 21.4
Cc1ccc(-n2[nH]c(C)c(N=Nc3cccc(-c4cccc(C(=O)O)c4)c3O)c2=O)cc1C [PCM-0214811] | 80.2
CNCCc1ccccn1 [PCM-0086123] | 5.5
CN(c1ncccc1CNc1nc(Nc2ccc3c(c2)CC(=O)N3)ncc1C(F)(F)F)S(C)(=O)=O [PCM-0095340] | 84.8
Cc1cc(C2CCCCC2)n(O)c(=O)c1 [PCM-0086120] | 39.7
CC[C@]12C=CCN3CC[C@]4(C(=C(C(=O)OC)C1)Nc1ccccc14)[C@@H]32 [PCM-0215925] | 10.8
